According to ChEMBL document CHEMBL1201862, “PubChem BioAssay data set” (2004):
Activity calls are given as the source filed them.

How the values were obtained:
[1] = target: T1, Apoptotic protease-activating factor 1 (Homo sapiens, UniProt O14727); assay type: functional
T1 sequence (O14727 whole entry): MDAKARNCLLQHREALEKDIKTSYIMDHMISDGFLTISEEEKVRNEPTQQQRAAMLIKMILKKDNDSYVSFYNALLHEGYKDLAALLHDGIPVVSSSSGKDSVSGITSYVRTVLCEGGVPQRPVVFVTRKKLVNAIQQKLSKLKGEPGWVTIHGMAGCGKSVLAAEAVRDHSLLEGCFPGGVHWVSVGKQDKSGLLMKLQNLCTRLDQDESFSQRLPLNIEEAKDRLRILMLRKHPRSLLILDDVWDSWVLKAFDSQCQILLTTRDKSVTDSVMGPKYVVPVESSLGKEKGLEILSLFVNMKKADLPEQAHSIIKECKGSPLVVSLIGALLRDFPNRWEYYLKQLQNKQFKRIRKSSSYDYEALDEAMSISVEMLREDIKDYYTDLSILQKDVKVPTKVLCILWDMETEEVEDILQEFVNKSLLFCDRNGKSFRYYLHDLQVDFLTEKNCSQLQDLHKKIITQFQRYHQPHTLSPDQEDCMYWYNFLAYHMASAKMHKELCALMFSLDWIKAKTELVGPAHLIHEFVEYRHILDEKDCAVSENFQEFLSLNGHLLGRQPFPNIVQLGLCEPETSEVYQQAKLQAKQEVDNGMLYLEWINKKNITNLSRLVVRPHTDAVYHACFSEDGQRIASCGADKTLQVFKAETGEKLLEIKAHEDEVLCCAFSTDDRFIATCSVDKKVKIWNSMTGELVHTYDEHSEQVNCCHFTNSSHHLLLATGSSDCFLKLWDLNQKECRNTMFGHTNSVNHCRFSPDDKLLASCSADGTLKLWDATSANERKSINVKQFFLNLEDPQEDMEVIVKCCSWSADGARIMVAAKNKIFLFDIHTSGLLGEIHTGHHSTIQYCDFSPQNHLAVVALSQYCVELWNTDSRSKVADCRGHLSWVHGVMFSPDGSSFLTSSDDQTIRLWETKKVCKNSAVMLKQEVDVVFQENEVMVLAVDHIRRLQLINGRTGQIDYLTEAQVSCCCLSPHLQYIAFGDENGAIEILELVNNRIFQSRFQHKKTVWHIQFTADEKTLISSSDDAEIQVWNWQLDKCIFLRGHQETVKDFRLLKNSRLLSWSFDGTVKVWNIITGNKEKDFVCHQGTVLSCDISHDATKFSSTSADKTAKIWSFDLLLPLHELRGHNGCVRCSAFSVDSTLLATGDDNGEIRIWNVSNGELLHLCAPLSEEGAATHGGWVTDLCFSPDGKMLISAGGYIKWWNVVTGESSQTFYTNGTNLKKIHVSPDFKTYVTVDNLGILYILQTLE

[2] = target: T2, Tyrosyl-DNA phosphodiesterase 2 (Homo sapiens, UniProt O95551); experiment: potency against TDP2 phosphodiesterase activity – biochemical, epi absorbance, IC50, dose response (AID 743297)
T2 sequence (O95551 whole entry): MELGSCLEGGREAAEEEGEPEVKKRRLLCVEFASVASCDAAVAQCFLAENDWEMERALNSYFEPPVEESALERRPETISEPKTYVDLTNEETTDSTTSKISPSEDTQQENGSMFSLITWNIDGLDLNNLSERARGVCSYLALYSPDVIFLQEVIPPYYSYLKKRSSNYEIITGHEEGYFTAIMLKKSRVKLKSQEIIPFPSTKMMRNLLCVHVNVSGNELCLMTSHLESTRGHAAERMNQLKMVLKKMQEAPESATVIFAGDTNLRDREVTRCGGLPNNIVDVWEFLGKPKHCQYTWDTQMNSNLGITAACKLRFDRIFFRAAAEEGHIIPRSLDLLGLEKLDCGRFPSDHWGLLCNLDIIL

[3] = target: Serine/threonine-protein phosphatase (Homo sapiens, UniProt Q9BPW0); experiment: inhibition of protein phosphatase 5 activity – biochemical, fluorescence, dose response (AID 2395)
[4] = target: Serine/threonine-protein phosphatase PP1-alpha catalytic subunit (Homo sapiens, UniProt P62136); experiment: inhibition of protein phosphatase 1 activity – biochemical, fluorescence, dose response (AID 2394)
[5] = alpha-synuclein stem-loop luciferase translation blockers – H4 neuroglioma cells, luminescence, confirmation (AID 1988); assay type: functional, cell-based
[6] = Luminescence Cell-Based Dose Response HTS to Identify Inhibitors of 5'UTR Stem-Loop Driven Prion Protein mRNA Translation in H4 Neuroglioblastoma Cells. [Related pubchem assays: 1827 (Project Summary), 1813 (Primary HTS)]; assay type: functional
[7] = test system: Streptococcus sp. 'group A'; experiment: Streptococcus pyogenes SK(-)GAS viability under kanamycin – luminescence, BacTiterGlo, confirmation, counter-screen for streptokinase expression inhibitor project, dose response (AID 1900); assay type: functional, organism-based
Streptococcus = experiment: GAS UMAA2166 growth inhibition – luminescence, BacTiterGlo, counter-screen for streptokinase expression inhibitor project, dose response (AID 1915); assay type: functional, organism-based;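 also: potency for reduction of bacterial viability or growth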
SUMO-activating enzyme = SUMO-activating enzyme (Homo sapiens, UniProt Q9UBT2); experiment: blockers of SAE1/SAE2–UBC9 SUMO transfer – biochemical, HTRF, uHTS, primary screen (AID 2006); assay type: protein-complex assay
[8] = target: T3, Long-chain-fatty-acid--AMP ligase FadD28 (Mycobacterium tuberculosis, UniProt P9WQ59); experiment: Fluorescence polarization aasay to screen for inhibitors that compete for the binding of FadD28 to a bisubstrate Measured in Biochemical System Using Plate Reader - 2147-01_Inhibitor_Dose_CherryPick_Activity.; assay type: functional, Mycobacterium tuberculosis H37Rv
T3 sequence (P9WQ59 whole entry): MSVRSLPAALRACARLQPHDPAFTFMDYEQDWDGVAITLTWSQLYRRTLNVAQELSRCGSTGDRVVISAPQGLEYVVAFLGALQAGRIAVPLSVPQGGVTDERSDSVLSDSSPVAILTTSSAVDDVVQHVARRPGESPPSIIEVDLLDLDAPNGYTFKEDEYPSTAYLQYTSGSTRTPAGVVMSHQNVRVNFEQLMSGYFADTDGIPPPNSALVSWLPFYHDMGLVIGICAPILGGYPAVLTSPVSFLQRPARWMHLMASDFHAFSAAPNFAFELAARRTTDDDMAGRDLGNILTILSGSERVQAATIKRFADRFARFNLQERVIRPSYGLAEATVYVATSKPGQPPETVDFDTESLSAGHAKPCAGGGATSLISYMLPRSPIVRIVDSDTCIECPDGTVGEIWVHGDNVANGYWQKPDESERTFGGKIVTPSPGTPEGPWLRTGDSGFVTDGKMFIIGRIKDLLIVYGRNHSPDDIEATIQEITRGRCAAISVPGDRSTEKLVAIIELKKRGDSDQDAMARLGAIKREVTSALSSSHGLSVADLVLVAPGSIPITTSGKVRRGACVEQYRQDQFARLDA

[9] = target: Dual specificity tyrosine-phosphorylation-regulated kinase 1A (Rattus norvegicus, UniProt Q63470); assay type: biochemical, Homo sapiens

Sequence of SUMO-activating enzyme (Q9UBE0 whole entry): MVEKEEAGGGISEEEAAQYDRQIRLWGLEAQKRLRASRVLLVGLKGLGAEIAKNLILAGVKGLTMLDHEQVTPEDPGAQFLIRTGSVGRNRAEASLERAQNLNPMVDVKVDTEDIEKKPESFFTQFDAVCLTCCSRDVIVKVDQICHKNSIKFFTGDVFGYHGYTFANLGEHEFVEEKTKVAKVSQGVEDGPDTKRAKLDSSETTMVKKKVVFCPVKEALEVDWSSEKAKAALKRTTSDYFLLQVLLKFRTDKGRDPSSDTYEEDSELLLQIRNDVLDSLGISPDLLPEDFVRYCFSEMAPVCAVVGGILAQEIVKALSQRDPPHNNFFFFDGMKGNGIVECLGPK
Sequence of SUMO-activating enzyme (Q9UBT2 whole entry): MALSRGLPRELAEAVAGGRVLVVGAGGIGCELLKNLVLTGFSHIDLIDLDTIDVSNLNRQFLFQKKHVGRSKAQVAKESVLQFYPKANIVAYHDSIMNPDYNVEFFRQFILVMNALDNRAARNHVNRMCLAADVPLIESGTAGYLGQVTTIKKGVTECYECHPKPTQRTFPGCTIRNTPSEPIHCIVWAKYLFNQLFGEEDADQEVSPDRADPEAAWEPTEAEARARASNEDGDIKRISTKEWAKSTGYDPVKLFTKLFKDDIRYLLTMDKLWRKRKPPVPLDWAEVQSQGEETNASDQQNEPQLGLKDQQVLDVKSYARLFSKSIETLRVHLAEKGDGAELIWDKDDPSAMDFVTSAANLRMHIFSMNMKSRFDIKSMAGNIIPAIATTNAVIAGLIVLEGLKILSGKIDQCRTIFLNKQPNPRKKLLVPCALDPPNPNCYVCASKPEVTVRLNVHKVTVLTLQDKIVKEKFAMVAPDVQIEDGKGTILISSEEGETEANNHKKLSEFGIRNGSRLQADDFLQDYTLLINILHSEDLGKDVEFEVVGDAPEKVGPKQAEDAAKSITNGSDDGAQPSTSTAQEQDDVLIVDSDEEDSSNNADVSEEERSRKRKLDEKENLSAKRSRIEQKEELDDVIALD
Sequence of Serine/threonine-protein phosphatase PP1-alpha catalytic subunit (P62136 whole entry): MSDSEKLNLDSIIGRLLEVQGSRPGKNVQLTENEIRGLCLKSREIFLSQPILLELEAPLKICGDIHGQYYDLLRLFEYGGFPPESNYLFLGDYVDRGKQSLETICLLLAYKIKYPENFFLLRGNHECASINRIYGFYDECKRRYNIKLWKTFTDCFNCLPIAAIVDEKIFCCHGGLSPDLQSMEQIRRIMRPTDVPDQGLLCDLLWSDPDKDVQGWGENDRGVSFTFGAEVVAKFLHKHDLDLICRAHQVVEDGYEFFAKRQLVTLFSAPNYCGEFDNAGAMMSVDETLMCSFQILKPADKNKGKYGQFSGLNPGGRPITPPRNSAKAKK
Sequence of Serine/threonine-protein phosphatase (Q9BPW0 whole entry): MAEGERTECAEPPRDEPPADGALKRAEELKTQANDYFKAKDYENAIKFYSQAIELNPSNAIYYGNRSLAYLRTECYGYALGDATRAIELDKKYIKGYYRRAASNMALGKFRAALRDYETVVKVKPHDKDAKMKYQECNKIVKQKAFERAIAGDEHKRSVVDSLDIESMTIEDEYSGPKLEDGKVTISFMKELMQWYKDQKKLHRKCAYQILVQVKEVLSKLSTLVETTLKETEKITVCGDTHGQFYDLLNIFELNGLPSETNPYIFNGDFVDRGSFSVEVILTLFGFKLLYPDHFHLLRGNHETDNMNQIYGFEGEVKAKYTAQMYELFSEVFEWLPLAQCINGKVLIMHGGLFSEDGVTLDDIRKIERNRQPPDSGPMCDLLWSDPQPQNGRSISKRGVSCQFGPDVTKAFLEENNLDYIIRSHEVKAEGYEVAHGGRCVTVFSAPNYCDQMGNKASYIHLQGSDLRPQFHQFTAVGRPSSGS

COc1ccc(NC(=S)Nc2ccc3nsnc3c2)cc1
IC50 [1]: 10.8 µM (active)
IC50 [2]: 9.93 µM (active)
IC50 [3]: > 2.48 µM (active)
IC50 [4]: > 67 µM (not active)

CC(C)(C)c1cc[n+](C2=C([N-]S(=O)(=O)c3ccccc3)C(=O)c3ccccc3C2=O)cc1
EC50 [5]: 9.04 µM (active)
EC50 [6]: 25 µM (active)
EC50 [7]: 4.89 µM (active)
EC50 (Streptococcus): 5.15 µM (active)

O=C1C=C(Nc2ccccc2C(=O)O)c2ccccc2C1=O
IC50 [1]: 3.84 µM (active)
IC50 (SUMO-activating enzyme): 19.8 µM (active)
IC50 [2]: 6.56 µM (active)
AC50 [8]: > 100 µM (inactive)
AC50 [9]: 6.25 µM (active)
